Biological target: human F508del-CFTR (Homo sapiens, UniProt P13569, DEL508-508)
Experiment: F508del-CFTR cell surface expression (corrector activity), DiscoveRx ß-galactosidase complementation chemiluminescence assay in recombinant U2OS cell line;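 note: U2OS cells co-expressing ProLink-tagged F508del-CFTR and a membrane-anchored enzyme acceptor, where more surface CFTR restores β-galactosidase activity measured by chemiluminescence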
Settings: for EC50: EC50, F508del-CFTR cell surface expression; for Emax: U2OS
[1] = U2OS cells, 16h compound incubation, geomean values
[2] = in relation to Emax of corrector lumacaftor (=100%), arithmetic mean values
[3] = U2OS cell line, 16h compound incubation, geomean values
[4] = U2OS cells, 16h compound incubation, geomean of several measurements
[5] = in relation to the Emax of the corrector lumacaftor (=100%), U2OS cells, 16h compound incubation, arithmetic mean
[6] = in relation to the Emax of the corrector lumacaftor (=100%), U2OS cell line, 16h compound incubation, arithmetic mean values

human F508del-CFTR, sequence (P13569 with tags, fused parts or gaps DEL508-508): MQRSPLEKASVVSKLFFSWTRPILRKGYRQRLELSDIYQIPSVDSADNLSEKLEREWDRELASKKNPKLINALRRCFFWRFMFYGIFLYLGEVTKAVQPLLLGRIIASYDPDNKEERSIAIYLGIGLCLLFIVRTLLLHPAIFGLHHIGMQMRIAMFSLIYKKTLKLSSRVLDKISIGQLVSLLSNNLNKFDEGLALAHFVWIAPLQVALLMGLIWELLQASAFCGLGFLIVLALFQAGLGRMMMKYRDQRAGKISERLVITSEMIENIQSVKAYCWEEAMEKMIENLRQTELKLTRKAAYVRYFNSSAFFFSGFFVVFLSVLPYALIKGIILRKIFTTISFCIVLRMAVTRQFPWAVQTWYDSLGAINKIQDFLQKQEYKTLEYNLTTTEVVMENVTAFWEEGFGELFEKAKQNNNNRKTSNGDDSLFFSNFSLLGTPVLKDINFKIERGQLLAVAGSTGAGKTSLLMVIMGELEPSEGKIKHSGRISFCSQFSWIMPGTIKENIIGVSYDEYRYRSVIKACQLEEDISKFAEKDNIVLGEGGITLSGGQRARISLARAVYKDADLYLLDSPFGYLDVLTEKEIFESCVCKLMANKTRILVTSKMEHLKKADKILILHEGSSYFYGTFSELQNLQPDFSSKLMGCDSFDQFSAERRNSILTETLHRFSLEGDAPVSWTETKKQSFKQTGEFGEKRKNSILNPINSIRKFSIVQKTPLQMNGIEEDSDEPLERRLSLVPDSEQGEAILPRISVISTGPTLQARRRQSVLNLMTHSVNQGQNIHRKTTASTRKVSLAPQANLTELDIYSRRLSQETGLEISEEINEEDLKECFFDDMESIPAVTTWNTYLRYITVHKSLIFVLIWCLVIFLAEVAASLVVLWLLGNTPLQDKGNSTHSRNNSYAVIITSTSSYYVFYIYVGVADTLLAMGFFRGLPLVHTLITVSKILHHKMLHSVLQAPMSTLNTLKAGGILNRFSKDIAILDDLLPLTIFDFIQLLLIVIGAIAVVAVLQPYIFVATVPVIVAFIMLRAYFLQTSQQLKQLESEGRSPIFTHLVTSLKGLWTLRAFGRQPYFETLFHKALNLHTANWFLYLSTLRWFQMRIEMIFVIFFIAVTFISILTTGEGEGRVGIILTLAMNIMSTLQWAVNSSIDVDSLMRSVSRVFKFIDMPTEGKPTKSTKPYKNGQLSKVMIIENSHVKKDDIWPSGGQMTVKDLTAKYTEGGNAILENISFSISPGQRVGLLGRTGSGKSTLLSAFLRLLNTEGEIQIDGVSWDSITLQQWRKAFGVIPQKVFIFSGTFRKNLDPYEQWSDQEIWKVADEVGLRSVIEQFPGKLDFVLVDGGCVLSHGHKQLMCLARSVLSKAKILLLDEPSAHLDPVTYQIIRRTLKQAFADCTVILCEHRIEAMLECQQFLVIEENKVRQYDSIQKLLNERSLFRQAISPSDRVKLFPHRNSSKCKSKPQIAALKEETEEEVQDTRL

SMILES: CC(C)C[C@H]1C(=O)N(C)[C@H](C)C(=O)N[C@H](Cc2ccccc2)COc2ccc3ncc(F)cc3c2C(=O)N[C@H](C(=O)NCCn2ncc(C3CC3)n2)CC(=O)N1C [Example 787, (3S,7S,10R,13R)-13-benzyl-N-(2-(4-cyclopropyl-2H-1,2,3-triazol-2-yl)ethyl)-20-fluoro-7-isobutyl-6,9,10-trimethyl-1,5,8,11-tetraoxo-1,2,3,4,5,6,7,8,9,10,11,12,13,14-tetradecahydro-[1]oxa[4,7,10,14]tetraazacycloheptadecino[16,17-f]quinoline-3-carboxamide]
- EC50 [1]: 190 nM
- Emax [2]: 323%

SMILES: CC(C)C[C@H]1C(=O)N(C)[C@H](C)C(=O)N[C@H](Cc2ccccc2)COc2ccc3nccn3c2C(=O)N[C@H](C(=O)NCCc2cc(C3CC3)no2)CC(=O)N1C [Example 790, (3S,7S,10R,13R)-13-benzyl-N-(2-(3-cyclopropylisoxazol-5-yl)ethyl)-7-isobutyl-6,9,10-trimethyl-1,5,8,11-tetraoxo-1,2,3,4,5,6,7,8,9,10,11,12,13,14-tetradecahydroimidazo[1′,2′:1,6]pyrido[2,3-p][1]oxa[4,7,10,14]tetraazacycloheptadecine-3-carboxamide]
- EC50 [1]: 650 nM
- Emax [2]: 350%

SMILES: COc1cccc(CCNC(=O)[C@@H]2CC(=O)N(C)[C@@H](CC(C)C)C(=O)N3CCCC[C@@H]3C(=O)N[C@H](Cc3ccccc3)COc3cnc4cccc(F)c4c3C(=O)N2)c1 [Example 535, (9S,13S,19aR,22R)-22-benzyl-6-fluoro-13-isobutyl-N-(3-methoxyphenethyl)-12-methyl-7,11,14,20-tetraoxo-7,8,9,10,11,12,13,14,17,18,19,19a,20,21,22,23-hexadecahydro-16H-pyrido[2′,1′:6,7][1]oxa[4,7,10,14]tetraazacycloheptadecino[17,16-c]quinoline-9-carboxamide]
- EC50 [1]: 407 nM
- Emax [2]: 424%

SMILES: Cc1csc(CCNC(=O)[C@@H]2CC(=O)N(C)[C@@H](CC(C)C)C(=O)N3CCCC[C@@H]3C(=O)N[C@H](Cc3ccccc3)COc3ccc4ncn(C)c4c3C(=O)N2)n1 (mixture of isomers) [Example 23, (8RS,12S,18aR,21R)-21-benzyl-12-isobutyl-5,11-dimethyl-N-(2-(4-methylthiazol-2-yl)ethyl)-6,10,13,19-tetraoxo-6,7,8,9,10,11,12,13,16,17,18,18a,19,20,21,22-hexadecahydro-5H,15H-imidazo[4′,5′:5,6]benzo[1,2-p]pyrido[2,1-f][1]oxa[4,7,10,14]tetraazacycloheptadecine-8-carboxamide]
- EC50 [3]: 991 nM

SMILES: COc1cc(CCNC(=O)[C@@H]2CC(=O)N(C)[C@@H](CC(C)C)C(=O)N(C)[C@H](Cc3nc(-c4ccc(F)cn4)no3)C(=O)N[C@H](Cc3ccccc3)COc3cnc4ccc(F)cc4c3C(=O)N2)on1 [Example 815, (3S,7S,10R,13R)-13-benzyl-20-fluoro-10-((3-(5-fluoropyridin-2-yl)-1,2,4-oxadiazol-5-yl)methyl)-7-isobutyl-N-(2-(3-methoxyisoxazol-5-yl)ethyl)-6,9-dimethyl-1,5,8,11-tetraoxo-1,2,3,4,5,6,7,8,9,10,11,12,13,14-tetradecahydro-[1]oxa[4,7,10,14]tetraazacycloheptadecino[17,16-c]quinoline-3-carboxamide]
- EC50 [4]: 128 nM
- Emax [5]: 413%

SMILES: COc1cccc(OCCNC(=O)[C@@H]2CC(=O)N(C)[C@@H](CC(C)C)C(=O)N3CCOC[C@@H]3C(=O)N[C@H](Cc3ccccc3)COc3ccc4ccccc4c3C(=O)N2)c1 [Example 33, (4aR,7R,18S,22S)-7-benzyl-22-isobutyl-N-(2-(3-methoxyphenoxy)ethyl)-21-methyl-5,16,20,23-tetraoxo-1,2,4,4a,5,6,7,8,16,17,18,19,20,21,22,23-hexadecahydronaphtho[1,2-p][1,4]oxazino[3,4-f][1]oxa[4,7,10,14]tetraazacycloheptadecine-18-carboxamide]
- EC50 [3]: 255 nM
- Emax [6]: 141%

SMILES: COc1cc(CCNC(=O)[C@@H]2CC(=O)N(C)[C@@H](CC(C)C)C(=O)N(CCC3CCCCC3)CC(=O)N[C@H](Cc3ccccc3)COc3cccc(OC)c3C(=O)N2)cc(OC)c1 [Example 205, (3R,9S,13S)-3-benzyl-7-(2-cyclohexylethyl)-N-(3,5-dimethoxyphenethyl)-9-isobutyl-16-methoxy-10-methyl-5,8,11,15-tetraoxo-2,3,4,5,6,7,8,9,10,11,12,13,14,15-tetradecahydrobenzo[p][1]oxa[4,7,10,14]tetraazacycloheptadecine-13-carboxamide]
- EC50 [3]: 175 nM
- Emax [6]: 229%

SMILES: CC[C@@H]1C(=O)N[C@H](Cc2ccccc2)COc2cc(C)nc(OC)c2C(=O)N[C@H](C(=O)NCCc2cccc(OC)c2)CC(=O)N(C)[C@@H](CC(C)C)C(=O)N1C [Example 774, (3R,6R,9S,13S)-3-benzyl-6-ethyl-9-isobutyl-16-methoxy-N-(3-methoxyphenethyl)-7,10,18-trimethyl-5,8,11,15-tetraoxo-2,3,4,5,6,7,8,9,10,11,12,13,14,15-tetradecahydropyrido[3,4-p][1]oxa[4,7,10,14]tetraazacycloheptadecine-13-carboxamide]
- EC50 [1]: 751 nM
- Emax [2]: 345%

SMILES: CC(C)C[C@H]1C(=O)N(C)[C@H](Cc2nc(-c3ccc(F)cn3)no2)C(=O)N[C@H](Cc2ccccc2)COc2cnc3ccc(F)cc3c2C(=O)N[C@H](C(=O)NCCCOC(F)(F)F)CC(=O)N1C [Example 846, (3S,7S,10R,13R)-13-benzyl-20-fluoro-10-((3-(5-fluoropyridin-2-yl)-1,2,4-oxadiazol-5-yl)methyl)-7-isobutyl-6,9-dimethyl-1,5,8,11-tetraoxo-N-(3-(trifluoromethoxy)propyl)-1,2,3,4,5,6,7,8,9,10,11,12,13,14-tetradecahydro-[1]oxa[4,7,10,14]tetraazacycloheptadecino[17,16-c]quinoline-3-carboxamide]
- EC50 [4]: 165 nM
- Emax [5]: 261%

SMILES: CC(C)C[C@H]1C(=O)N(C)[C@H](Cc2nc(C(F)(F)F)no2)C(=O)N[C@H](Cc2ccccc2)COc2cnc3ccc(F)cc3c2C(=O)N[C@H](C(=O)NCCc2noc(C3CC3)n2)CC(=O)N1C [Example 811, (3S,7S,10R,13R)-13-benzyl-N-(2-(5-cyclopropyl-1,2,4-oxadiazol-3-yl)ethyl)-20-fluoro-7-isobutyl-6,9-dimethyl-1,5,8,11-tetraoxo-10-((3-(trifluoromethyl)-1,2,4-oxadiazol-5-yl)methyl)-1,2,3,4,5,6,7,8,9,10,11,12,13,14-tetradecahydro-[1]oxa[4,7,10,14]tetraazacycloheptadecino[17,16-c]quinoline-3-carboxamide]
- EC50 [4]: 19 nM
- Emax [5]: 333%

SMILES: COc1cccc(CCNC(=O)[C@@H]2CC(=O)N(C)[C@@H](CC(C)C)C(=O)N(C)CC(=O)N[C@H](Cc3ccccc3)COc3ccc4c(c3C(=O)N2)OCO4)c1 [Example 323, (8R,14S,18S)-8-benzyl-14-isobutyl-N-(3-methoxyphenethyl)-12,15-dimethyl-10,13,16,20-tetraoxo-7,8,9,10,11,12,13,14,15,16,17,18,19,20-tetradecahydro-[1,3]dioxolo[4′,5′:5,6]benzo[1,2-p][1]oxa[4,7,10,14]tetraazacycloheptadecine-18-carboxamide]
- EC50 [3]: 742 nM
- Emax [6]: 258%

SMILES: CC(C)C[C@H]1C(=O)N(C)C2(CC2)C(=O)N[C@H](Cc2ccccc2)COc2ccc3ncccc3c2C(=O)N[C@H](C(=O)NCCc2noc(C3CC3)n2)CC(=O)N1C [Example 544, (3′S,7′S,13′R)-13′-benzyl-N-(2-(5-cyclopropyl-1,2,4-oxadiazol-3-yl)ethyl)-7′-isobutyl-6′,9′-dimethyl-1′,5′,8′,11′-tetraoxo-2′,3′,4′,5′,6′,7′,8′,9′,11′,12′,13′,14′-dodecahydro-1′H-spiro[cyclopropane-1,10′-[1]oxa[4,7,10,14]tetraazacycloheptadecino[16,17-f]quinoline]-3′-carboxamide]
- EC50 [1]: 774 nM
- Emax [2]: 398%

SMILES: CC(C)C[C@H]1C(=O)N2CCOC[C@@H]2C(=O)N[C@H](Cc2ccccc2)COc2cnc3ccc(F)cc3c2C(=O)N[C@H](C(=O)NCCc2noc(C3CC3)n2)CC(=O)N1C [Example 489, (9S,13S,19aR,22R)-22-benzyl-N-(2-(5-cyclopropyl-1,2,4-oxadiazol-3-yl)ethyl)-5-fluoro-13-isobutyl-12-methyl-7,11,14,20-tetraoxo-7,8,9,10,11,12,13,14,16,17,19,19a,20,21,22,23-hexadecahydro-[1,4]oxazino[3′,4′:6,7][1]oxa[4,7,10,14]tetraazacycloheptadecino[17,16-c]quinoline-9-carboxamide]
- EC50 [1]: 625 nM
- Emax [2]: 273%

SMILES: CC(C)C[C@H]1C(=O)N(C)CC(=O)N[C@H](Cc2ccccc2)COc2cccc(F)c2C(=O)N[C@H](C(=O)NCCc2ccc3c(c2)OCO3)CC(=O)N1C [Example 278, (3R,9S,13S)-N-(2-(benzo[d][1,3]dioxol-5-yl)ethyl)-3-benzyl-16-fluoro-9-isobutyl-7,10-dimethyl-5,8,11,15-tetraoxo-2,3,4,5,6,7,8,9,10,11,12,13,14,15-tetradecahydrobenzo[p][1]oxa[4,7,10,14]tetraazacycloheptadecine-13-carboxamide]
- EC50 [3]: 709 nM
- Emax [6]: 167%

SMILES: Cc1csc(CCNC(=O)[C@@H]2CC(=O)N(C)[C@@H](CC(C)C)C(=O)N3CCCC[C@@H]3C(=O)N[C@H](Cc3ccccc3)COc3ccc4ncn(C)c4c3C(=O)N2)n1 (racemic) [Example 23, (8RS,12S,18aR,21R)-21-benzyl-12-isobutyl-5,11-dimethyl-N-(2-(4-methylthiazol-2-yl)ethyl)-6,10,13,19-tetraoxo-6,7,8,9,10,11,12,13,16,17,18,18a,19,20,21,22-hexadecahydro-5H,15H-imidazo[4′,5′:5,6]benzo[1,2-p]pyrido[2,1-f][1]oxa[4,7,10,14]tetraazacycloheptadecine-8-carboxamide]
- Emax [6]: 115%
